Test results: PubChem BioAssay (NCI)
Several values for one entry are separate records, joined by “and”; a condition that tells them apart may be missing. Identical values can stand only once.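 Briefly, cells in 96-well plates were exposed to five compound concentrations for 48 h, and endpoints were estimated by linear interpolation. GI50 is the concentration that inhibits growth by half. TGI: concentration producing complete growth inhibition.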

Experiments:
Assay in all cases: NCI tumour cell line growth inhibition, 48 h
[1] = tested on: MDA-N
[2] = tested on: DMS 114 small cell lung
[3] = tested on: DMS 273 small cell lung
[4] = tested on: HOP-18 NSCLC
[5] = tested on: KM20L2 colon
[6] = tested on: M19-MEL melanoma
[7] = tested on: RXF-631 renal
[8] = tested on: SNB-78 CNS
[9] = tested on: XF 498 CNS
[10] = tested on: P388 leukemia
[11] = tested on: P388/ADR leukemia

Compound	TGI [1]	TGI [2]	TGI [3]	TGI [4]	TGI [5]	TGI [6]	TGI [7]	TGI [8]	TGI [9]	also measured
CC1=C/C(O)CC(=O)Cc2nc(co2)C(=O)N2CCC=C2C(=O)OC(C(C)C)C(C)/C=C\C(=O)NC/C=C\1 (stereo not given)	67.9 µM									
CN(C)CCC(=O)N1CCc2c([nH]c3ccccc23)C1c1cccnc1 (stereo not given)		> 100 µM	> 100 µM	> 100 µM	> 100 µM	> 100 µM	> 100 µM	> 100 µM	> 100 µM	
O=C1[C@@H]2C(c3ccncc3)=NO[C@@H]2C(=O)N1c1ccc(Cc2ccc(N3C(=O)[C@H]4C(c5ccncc5)=NO[C@H]4C3=O)cc2)cc1		> 100 µM	> 100 µM	> 100 µM	> 100 µM	> 100 µM	> 100 µM	> 100 µM		
CNC(=O)/C(=C/c1ccc(OC)cc1)c1cc(OC)c(OC)c(OC)c1	0.71 µM	> 21.5 µM	> 100 µM	> 100 µM	2.72 µM	> 100 µM	> 100 µM	> 100 µM	65.8 µM	
COC(=O)[C@@H]1[C@H](O)[C@H](C)[C@H](O)[C@H](C)/C=C\C=C(C)C(=O)Nc2c(C)c(OC(C)=O)c3c(c2O)C(=O)C(C)=C2OCOC(=C23)C(C)=C[C@@](C)(O)[C@H](O)[C@@H](C)[C@H]1OC(C)=O	41.9 µM									
Nc1cc(N)cc(Cc2ccccc2)c1	> 100 µM									
Cc1cccc2cc3cccc(C(=O)NCCN(C)C)c3nc12		1.02 µM	0.926 µM	9.35 µM	5.11 µM	0.847 µM	27.7 µM	11.4 µM		
CCOC(=O)C(O)Cc1cnc2ccccc2n1 (stereo not given)	> 100 µM									
Clc1ccc(N/N=C(\c2ccccc2)c2ccccn2)nc1	26.5 µM									
COc1ccc(C(=O)C/C(=N/NC(N)=S)C(=O)Nc2ccccc2)cc1		> 100 µM	> 100 µM	> 100 µM	> 100 µM	> 100 µM		> 100 µM	> 100 µM	
CCOC(=O)C1=C(c2ccccc2)NC(c2ccccc2)=C(C(=O)OCC)c2c1c(=O)cc[nH]c2=O			> 100 µM		> 100 µM	> 100 µM	> 100 µM	> 100 µM	> 100 µM	
CN(N=O)C(=O)Nc1ccc(C(=O)O)cc1	> 100 µM									
C/C(=C1/N=C(c2ccccc2)OC1=O)c1ccccc1	> 100 µM									
COc1cccc2c1C(=O)c1c(O)c3c(c(O)c1C2=O)C[C@@](O)(C(C)=O)C[C@@H]3OC1CC(O)C(O)C(C)O1 (stereo not given in full)	21.4 µM		7.84 µM and 3.46 µM	7.13 µM and 7.74 µM		9.24 µM and 6.19 µM		59.1 µM		GI50 [10]: 0.013 µM; TGI [10]: 0.372 µM; TGI [11]: 1.64 µM
CN(C)CCC(/C=C/c1ccccc1)=N\Nc1ccc(Cl)cc1		5.9 µM	4.66 µM	17 µM	3.62 µM	19.7 µM		21.4 µM		
CCOC(=O)C1=C(C)N(NC(=O)OC)C2(N)N(NC(=O)OC)C(C)=C(C(=O)OCC)C12C#N (stereo not given)		> 100 µM	> 100 µM		> 100 µM	> 100 µM			> 100 µM	
Cc1cc(Cl)ccc1N1C(=O)C(=O)C(c2nc3ccccc3o2)C(=O)C1=O		> 100 µM	> 100 µM	> 100 µM	> 100 µM	> 100 µM		> 100 µM	> 100 µM	
Cc1cccc(Cl)c1NC(=O)c1cccc([N+](=O)[O-])c1O		83.1 µM	> 100 µM	> 100 µM	> 100 µM		> 100 µM	> 100 µM	> 100 µM	

Compound	TGI [1]	TGI [2]	TGI [3]	TGI [4]	TGI [5]	TGI [6]	TGI [7]	TGI [8]	TGI [9]	also measured
CC(=O)OCC1OC(n2c(=S)n(-c3ccccc3)c(=O)c3cc(Br)ccc32)C(OC(C)=O)C(OC(C)=O)C1OC(C)=O (stereo not given)		> 100 µM	> 100 µM		> 100 µM	> 100 µM	> 100 µM	> 100 µM	61.2 µM and > 100 µM	GI50 [8]: 41.5 µM and > 10 µM; GI50 [9]: 23.6 µM and > 100 µM
O=[N+]([O-])c1ccc2nc3ccscc-3c2c1		39.6 µM	> 100 µM	> 100 µM	94.9 µM	61.8 µM	> 100 µM	90 µM	87.2 µM	
C/C=C/C=C/CCCCCCCCCCCCC[C@]1(OC)C=CC(CC(=O)OC)OO1 (stereo not given in full)					51.1 µM	33 µM	56 µM		44.6 µM	GI50 [5]: 23.9 µM; GI50 [7]: 24 µM; GI50 [9]: 24.2 µM
O=C(O)c1nnsc1-c1csnn1	> 100 µM									
C=C[Si](C)(C)COC(=O)/C(C#N)=C/C=C/c1ccccc1		> 100 µM	> 100 µM	> 100 µM	> 100 µM	> 100 µM		> 100 µM		
NC1=NCC(c2ccccn2)C1c1ccc(F)cc1 (stereo not given)		> 100 µM		> 100 µM	> 100 µM	> 100 µM	> 100 µM	> 100 µM	> 100 µM	
Cc1ccccc1NC(=O)C(=O)CC(=O)C1CCOC1=O (stereo not given)		> 100 µM	> 100 µM	> 100 µM	> 100 µM	> 100 µM		> 100 µM	> 100 µM	
CC1(C)Cc2nnsc2C2=C1C(=O)CCS2		> 100 µM	> 100 µM	> 100 µM	> 100 µM					
CC(C)C[C@H]1C(=O)N2CCC[C@H]2[C@]2(O)O[C@](NC(=O)[C@@H]3C=C4c5cccc6[nH]c(Br)c(c56)C[C@H]4N(C)C3)(C(C)C)C(=O)N12	> 100 µM									
O=C1c2ccccc2C(=O)c2sc(Nc3ccc(Cl)cc3)nc21		3.63 µM	3.74 µM	7.26 µM	33.9 µM	1.56 µM		8.03 µM	4.7 µM	
Cc1cccc(C)c1NC(=O)CCCC(=O)C(C#N)c1ccc(Cl)cc1 (stereo not given)		> 100 µM	> 100 µM	> 100 µM	> 100 µM	> 100 µM		> 100 µM		
Cc1[nH]c(=O)nc(N/N=C/c2ccc(Cl)cc2)c1C(=O)Nc1ccc(Cl)cc1	> 100 µM	56.1 µM	> 100 µM	7.3 µM	> 100 µM	> 100 µM		> 100 µM	25.2 µM	
C[CH2][Ge]([CH2]C)([CH2]C)[O]C(=O)C([O][Ge]([CH2]C)([CH2]C)[CH2]C)c1ccccc1 (stereo not given)		31.6 µM		59 µM	42.8 µM	42.9 µM				GI50 [2]: 5.84 µM; GI50 [4]: 26.7 µM; GI50 [5]: 17 µM; GI50 [6]: 16.9 µM
COc1ccc(C2N3CCCCC3[C@@H]3c4[nH]c5ccccc5c4CCN23)c(OC)c1 (stereo not given in full)		38.4 µM	34.3 µM	> 100 µM	41.9 µM	37.4 µM		49 µM	28.2 µM	
O=C1C(CO)=C[C@@H](O)[C@H]2O[C@@H]12	> 100 µM									
Cc1cccc2c(N=Nc3ccccc3[N+](=O)[O-])c(O)[nH]c12	> 100 µM									
CC(C)(C)c1cc(-c2c3nc(c(-c4cc(C(C)(C)C)cc(C(C)(C)C)c4)c4ccc([nH]4)c(-c4cc(C(C)(C)C)cc(C(C)(C)C)c4)c4nc(c(-c5cc(C(C)(C)C)cc(C(C)(C)C)c5)c5ccc2[nH]5)C=C4)C=C3)cc(C(C)(C)C)c1		> 100 µM	> 100 µM	> 100 µM	> 100 µM		> 100 µM	> 100 µM	> 100 µM	
CC1NCCc2c1[nH]c1cc(O)ccc21 (stereo not given)		> 100 µM		> 100 µM	> 100 µM	> 100 µM		> 100 µM	> 100 µM	
